Data set [1] is described as follows: Saturation uptake of glycerine into melted non-esterified phytosterols. Format: physicochemical. How it is done:
An experiment was conducted to determine the “saturation uptake” level during the chemical interaction between phytosterols and glycerine, The saturation uptake level can be either an adsorption phenomenon or a solubility phenomenon. First, the saturation level of glycerine uptake into non-esterified phytosterols was determined Mixed phytosterols that had been purified from soybean oil, and containing principally beta-sitosterol, campesterol and stigmasterol (CoroWise® FG-50), were heated, […] Increasing levels of glycerine (approximately 5, 10, 20 and 25 parts by weight) could be adsorbed or dissolved in 100 parts by weight of heated and melted free phytosterols. The evidence for adsorption (or solubility) was that a single melted phase of liquid was visible in heated glass test tubes containing these mixtures, whereas when larger amounts of glycerine were added, the glycerine formed a separate clear phase beneath the melted phytosterols. Upon cooling and solidification of the phytosterol samples containing between approximately 5 and 25 parts by weight of glycerine, the resulting solids were dry to the touch with no apparent free glycerine liquid. […]

The conditions of data set [2]: cited from earlier work.
Data set [3] can be described thus: Mutual solubility of phytosterols with glycerine or propylene glycol at 150° C. It counts as physicochemical. The text has this:
It was discovered that a substantial amount of glycerine can be combined with phytosterol to form a complex (up to approximately 20% glycerine based on the weight of phytosterol). This was surprising given that glycerine is a low molecular weight hydrophilic substance whereas phytosterols (e.g., beta-sitosterol, campesterol and stigmasterol) are highly hydrophobic substances. […] The question arose, why can 20% glycerine dissolve into melted phytosterols when a small amount of phytosterol will not dissolve into glycerine. […] For example, equal weight percentages of these ingredients dissolve easily in one another.

As for `OCC(O)CO` [glycerine], the “saturation level of glycerine relative to phytosterols” value in data set [1] is ~20 % by weight. In addition, in data set [1] (phytosterols melted at approximately 135° C.), the “solubility limit (saturation level) of glycerine in melted phytosterols” value is given as “about 25 g per 100 g phytosterols”.
For the compound `CCCCCO` [n-amyl alcohol], the “solubility limit in water” value in data set [2] was 2.7 g per 100 g water.
With `CC(O)CO` (stereo not shown) [propylene glycol], the “miscibility of propylene glycol and phytosterols” value in data set [3] was “substantially miscible”.
